The values that follow come from patent US20050129621A1, “Aerosol formulations for pulmonary administration of medicaments to produce a systemic effect” (Chiesi Farmaceutici S.P.A., priority 2002, published 2005).

Read-outs that look alike come from different tables or passages of the source. A value given as a limit tells only on which side of the number the result lay.

The nature of data set [1]: Stability study of pMDI formulations in coated aluminum cans, HPLC. Conditions: 25° C., six months. The method, then: The recovery of diisobutyryl apomorphine was determined by HPLC.
The leuprolide acetate content was determined by HPLC.

Data set [2] in a line: Cascade impaction studies (Andersen Cascade Impactor), aerosol delivery characteristics. Format: physicochemical. The method, then:
All impaction studies were conducted with formulations contained in cut edge anodised aluminium cans fitted with 50 μl or 100 μl valves. The studies were carried out using an Andersen Cascade Impactor (ACI) fitted with a USP XXII metal throat entry port.
The HFA solution formulations were discharged into the ACI through actuators having an orifice diameter from 0.14 to 0.45 mm. Deposition of the drug on each ACI plate was determined by high pressure liquid chromatography (HPLC).
MMAD values and corresponding geometric standard deviation (GSD) were calculated from plots of the cumulative percentage undersize of drug collected on each ACI plate (probit scale), against the upper cut off diameter for each respective ACI plate (log10 scale).
The following parameters were determined: the metered dose, which is the sum of the dose delivered through the Andersen apparatus plus the active ingredient residue deposited on the device actuator; the cumulative amount of active particles deposited on the various ACI stages; the amount on the actuator; the amount in the adaptor and in the throat (adp/throat); the fme particle dose or respirable dose (FPD) which is the amount of particles deposited on stages 3 to filter of the ACI and corresponds to the amount of particles of size less than 4.7 μm; the fine particle fraction or respirable fraction which is the ratio between the respirable dose and the dose delivered ex-actuator.
The cans were provided with actuators with an orifice diameter of 0.22 mm.
Two ACI deposition determinations were performed with each formulation. Twenty shots were discharged into the ACI.
The cans were provided with actuators with an orifice diameter of 0.14 mm.
Two ACI deposition determinations were performed with the formulation. Ten shots were discharged into the ACI.

Data set [3] is described as follows: Solubility studies in HFA pMDI formulations (visual assessment for crystal growth). The method, then:
The assembly of the pMDI cans was carried out using hand operated crimping and filling equipment. Formulations were prepared by accurately weighing the required quantity of drug into the can or vial. The appropriate volume of ethanol and the other co-solvent if required in the formulation, was then added. The valve was crimped onto the vial/can and the assembled vial/can was ultra-sonicated for approximately 10 minutes. The HFA propellant was filled through the valve and the pMDI was ultra-sonicated for a further 10 minutes. […] Final compositions were calculated as percentage w/v for the active ingredient and as percentage w/w for the co-solvents.
All solubility investigations were conducted in plastic coated glass pMDI vials fitted with continuous spray valves. Once produced the medicament-HFA solution pMDIs were stored in refrigerator at 4° C. (±0.1° C.). The pMDI vials were removed periodically and the vials assessed visually with the aid of a polarized light unit for crystal growth.

[4] abbreviates: 0.5% and 1% w/v in HFA 134a, 5% w/w ethanol, 0.1% w/w glycerol, actuator orifice 0.22 mm.
The mark [5] stands for this setting: 0.04% w/v (40 μg/100 μl) in HFA 134a, 15% w/w ethanol, 2% w/w water, actuator orifice 0.14 mm.
Setting [6] is: 0.08% w/v (80 μg/100 μl) in HFA 134a, 18% w/w ethanol, 3% w/w water, actuator orifice 0.14 mm.

For `CC(C)C(=O)Oc1ccc2c(c1OC(=O)C(C)C)-c1cccc3c1[C@@H](C2)N(C)CC3` [diisobutyryl apomorphine], the degradation entry in data set [1] (formulation of Example 1, coated aluminum cans upright and inverted) was “minimal degradation”. For the same compound, the “difference between cans stored upright and inverted” value in data set [1] (formulation of Example 1, coated aluminum cans) is reported as “no significant difference”. In data set [2] (setting [4]), the MMAD result was “about 2.0 μm”, the “amount of active particles of sizes from 0.43 to 3.3 μm” value (“amount of active particles of sizes” below) is reported as no less than 60% and the “fine particle fraction (FPF)” value was 70-75%. Further, the “concentration at which formulations are soluble” value in data set [3] (in HFA 134a or HFA 227, various percentages of ethanol, stored at 4° C.) is recorded as “up to 1 % w/v”.
As for `CCNC(=O)[C@@H]1CCCN1C(=O)[C@H](CCCNC(=N)N)NC(=O)[C@H](CC(C)C)NC(=O)[C@@H](CC(C)C)NC(=O)[C@H](Cc1ccc(O)cc1)NC(=O)[C@H](CO)NC(=O)[C@H](Cc1c[nH]c2ccccc12)NC(=O)[C@H](Cc1c[nH]cn1)NC(=O)[C@@H]1CCC(=O)N1` [leuprolide acetate], in data set [2] (setting [5]), the MMAD result is recorded as “about 1.0 μm”, the “amount of active particles of sizes” value is no less than 61% and the “fine particle fraction (FPF)” value was “at least 72%”. Besides, in data set [2] (setting [6]), the MMAD result is “about 1.3 μm”, the “amount of active particles of sizes” value is listed as no less than 52% and the “fine particle fraction (FPF)” value is “at least 59%”. In data set [3], the “change of solubility when water was added” value was “significant increase” and the “concentration at which formulations are soluble” value is “up to 0.26 % w/v”.
